Square brackets hold non-standard residues; d marks the D form. Ends that are not written are not given here.
System: mean arterial pressure and heart rate
Assay: In vivo blood pressure and heart rate after intravenous dosing in normotensive rats
Set-up: species or system Sprague-Dawley rats
Procedure: Male Sprague-Dawley rats obtained from Charles River Laboratories, Wilmington, Mass., and weighing 276-300 g, were group housed at 22° C. and kept on 12 hour light/dark cycle. Food and water were provided ad lib. Animals were anesthetized with sodium pentobarbital (65 mg/kg) and under sterile conditions a one-inch incision was made in the fold of the left leg to expose the femoral blood vessels. Two lengths of PE-50 tubing filled with 10% heparin were inserted into the left femoral artery and left femoral vein for measurement of blood pressure and for drug delivery, respectively. The tubings were tunneled under the skin and exposed through the mid-scapular region. Animals were allowed at least 24 hours recovery prior to experiments. A force transducer (Spectramed Model P23XL, Grass Instruments, Quincy, Mass., USA), and tachograph (Model 7P44D, Grass Instruments) was used for recording of systolic and diastolic pressures and heart rate from the femoral artery catheter. Patency of catheters was verified by flushing with either saline or 10% heparin. A dose of either 30, 100, 500, 800 or 1000 nM/kg ([…]) of NPY27-36 (D-Tyr^27,36, D-Thr^32) (prepared as described in Example 1 above), or saline was delivered to the animal via the catheter in the left femoral vein. Changes in systolic and diastolic pressures and heart rater were recorded from the catheter in the left femoral artery over a 10 minute time interval.

[1] = i.v., 30-1000 nM/kg, normotensive Sprague-Dawley rats, recorded over 10 min

Substance: D-Tyr-Ile-Asn-Leu-Ile-D-Thr-Arg-Gln-Arg-D-Tyr-NH2 ([dY]INLI[dT]RQR[dY]-NH2; N-terminus assumed; SMILES CC[C@H](C)[C@H](NC(=O)[C@H](N)Cc1ccc(O)cc1)C(=O)N[C@@H](CC(N)=O)C(=O)N[C@@H](CC(C)C)C(=O)N[C@H](C(=O)N[C@@H](C(=O)N[C@@H](CCCNC(=N)N)C(=O)N[C@@H](CCC(N)=O)C(=O)N[C@@H](CCCNC(=N)N)C(=O)N[C@H](Cc1ccc(O)cc1)C(N)=O)[C@H](C)O)[C@@H](C)CC) [NPY27-36 (D-Tyr^27,36, D-Thr^32)]
- changes in pressure and heart rate vs saline treatment (i.v. doses of 30 and 100 nM/kg): failed to produce changes that were significantly different from saline treatment
- mean arterial pressure vs saline-treated controls (i.v. doses of 500, 800 and 1000 nM/kg): significantly different decreases in mean arterial pressure
- heart rate vs saline controls (i.v. doses of 500 and 1000 nM/kg): significantly different increases in heart rate
- heart rate, dose-response [1]: increase in heart rate
- mean arterial pressure, dose-response [1]: dose-dependent decrease in mean arterial pressure

Source: patent publication US6075009A, “Neuropeptide Y analogues, compositions and methods of lowering blood pressure” (East Carolina University, priority 1995, dated 2000)
